Assay results: patent US10703765B2 (priority 2014, dated 2020)
Counter-ions that a name gives are not always drawn.

target: human σ1 receptor (Homo sapiens, UniProt Q99720); assay: biochemical; assay type: binding; set-up: μ and σ1 dual binding: key to the marks not given beside the values; details: not given
Sequence (Q99720 whole entry): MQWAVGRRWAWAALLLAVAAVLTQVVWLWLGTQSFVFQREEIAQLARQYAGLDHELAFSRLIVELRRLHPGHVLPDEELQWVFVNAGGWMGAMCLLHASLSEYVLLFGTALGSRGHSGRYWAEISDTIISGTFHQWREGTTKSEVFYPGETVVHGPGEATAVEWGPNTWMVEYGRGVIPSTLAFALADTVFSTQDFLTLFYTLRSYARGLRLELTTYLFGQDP

Row | Compound | μ and σ1 dual binding | Ki [nM]
1 | CC(=O)Nc1ccc(CCN2CCC3(CC2)CN(c2ccccc2)C(=O)C(C)O3)cc1.Cl (centres unmarked) [Example 241, N-(4-(2-(2-methyl-3-oxo-4-phenyl-1-oxa-4,9-diazaspiro[5.5]undecan-9-yl)ethyl)phenyl)acetamide hydrochloride] | ++ | –
2 | CC(=O)Nc1cccc(N2CC3(CCN(CCc4ccccc4)CC3)OC(C)C2=O)c1 (centres unmarked) [Example 242, N-(3-(2-methyl-3-oxo-9-phenethyl-1-oxa-4,9-diazaspiro[5.5]undecan-4-yl)phenyl)acetamide] | ++ | –
3 | CC(=O)Nc1ccccc1CCN1CCC2(CC1)CN(c1ccccc1)C(=O)C(C)O2 (centres unmarked) [Example 245, N-(2-(2-(2-methyl-3-oxo-4-phenyl-1-oxa-4,9-diazaspiro[5.5]undecan-9-yl)ethyl)phenyl)acetamide] | ++ | –
4 | CC(=O)Nc1cccc(CCN2CCC3(CC2)CN(c2ccccc2)C(=O)C2(CC2)O3)c1 [Example 246, N-[3-(2-{13-oxo-12-phenyl-4-oxa-8,12-diazadispiro[2.1.5.3]tridecan-8-yl}ethyl)phenyl]acetamide] | – | < 500
5 | CC(=O)Nc1cccc(CCN2CCC3(CC2)CN(c2ccccc2)C(=O)C(C)O3)n1.Cl (centres unmarked) [Example 254, N-(6-(2-(2-methyl-3-oxo-4-phenyl-1-oxa-4,9-diazaspiro[5.5]undecan-9-yl)ethyl)pyridin-2-yl)acetamide hydrochloride] | ++ | –
6 | CC1OC2(CCN(CCc3cccc(NS(C)(=O)=O)c3)CC2)CN(c2ccccc2)C1=O (centres unmarked) [Example 256, N-(3-(2-(2-methyl-3-oxo-4-phenyl-1-oxa-4,9-diazaspiro[5.5]undecan-9-yl)ethyl)phenyl)methanesulfonamide] | – | < 500
7 | CC1OC2(CCN(CCc3ccccc3NS(C)(=O)=O)CC2)CN(c2ccccc2)C1=O (centres unmarked) [Example 257, N-(2-(2-(2-methyl-3-oxo-4-phenyl-1-oxa-4,9-diazaspiro[5.5]undecan-9-yl)ethyl)phenyl)methanesulfonamide] | – | < 500
8 | CC1OC2(CCN(CCc3cccc(NS(=O)(=O)C(C)C)c3)CC2)CN(c2ccccc2)C1=O (centres unmarked) [Example 261, N-(3-(2-(2-methyl-3-oxo-4-phenyl-1-oxa-4,9-diazaspiro[5.5]undecan-9-yl)ethyl)phenyl)propane-2-sulfonamide hydrochloride] | – | < 500
9 | CC1OC2(CCN(CCc3cccc(NC(N)=O)c3)CC2)CN(c2ccccc2)C1=O (centres unmarked) [Example 262, 1-(3-(2-(2-methyl-3-oxo-4-phenyl-1-oxa-4,9-diazaspiro[5.5]undecan-9-yl)ethyl)phenyl)urea] | – | < 500
10 | CC1OC2(CCN(CCc3cccc(NC(N)=O)n3)CC2)CN(c2ccccc2)C1=O (centres unmarked) [Example 264, 1-(6-(2-(2-methyl-3-oxo-4-phenyl-1-oxa-4,9-diazaspiro[5.5]undecan-9-yl)ethyl)pyridin-2-yl)urea] | – | < 500
11 | CC1OC2(CCN(CCc3cccc(C(N)=O)c3)CC2)CN(c2ccccc2)C1=O (centres unmarked) [Example 266, 3-(2-(2-methyl-3-oxo-4-phenyl-1-oxa-4,9-diazaspiro[5.5]undecan-9-yl)ethyl)benzamide] | – | < 500
12 | CC1OC2(CCN(CCc3ccccc3)CC2)CN(c2cccc(C(=O)N(C)C)c2)C1=O.Cl (centres unmarked) [Example 271, N,N-dimethyl-3-(2-methyl-3-oxo-9-phenethyl-1-oxa-4,9-diazaspiro[5.5]undecan-4-yl)benzamide hydrochloride] | ++ | –
13 | CN(C)C(=O)CC1OC2(CCN(CCc3ccccc3)CC2)CN(c2ccccc2)C1=O.Cl (centres unmarked) [Example 272, N,N-dimethyl-2-(3-oxo-9-phenethyl-4-phenyl-1-oxa-4,9-diazaspiro[5.5]undecan-2-yl)acetamide hydrochloride] | ++ | –

same assay, conditions: combined class from Ki-σ1 (human σ1 receptor, A1) and Ki-μ (human μ-opioid receptor, A2) radioligand binding

Row | Compound | μ and σ1 dual binding
14 | CC(C)C(=O)Nc1cccc(CCN2CCC3(CC2)CN(c2ccccc2)C(=O)C(C)O3)c1 (centres unmarked) [Example 247, N-(3-(2-(2-methyl-3-oxo-4-phenyl-1-oxa-4,9-diazaspiro[5.5]undecan-9-yl)ethyl)phenyl)isobutyramide] | ++
15 | CC1OC2(CCN(CCc3cccc(NC(=O)N(C)C)c3)CC2)CN(c2ccccc2)C1=O (centres unmarked) [Example 248, 1,1-dimethyl-3-(3-(2-(2-methyl-3-oxo-4-phenyl-1-oxa-4,9-diazaspiro[5.5]undecan-9-yl)ethyl)phenyl)urea] | ++
16 | CC1OC2(CCN(CCc3ccc(NS(C)(=O)=O)cc3)CC2)CN(c2ccccc2)C1=O (centres unmarked) [Example 258, N-(4-(2-(2-methyl-3-oxo-4-phenyl-1-oxa-4,9-diazaspiro[5.5]undecan-9-yl)ethyl)phenyl)methanesulfonamide] | ++
17 | CC1OC2(CCN(CCc3cccc(NS(N)(=O)=O)c3)CC2)CN(c2ccccc2)C1=O (centres unmarked) [Example 265, N-[3-(2-{2-methyl-3-oxo-4-phenyl-1-oxa-4,9-diazaspiro[5.5]undecan-9-yl}ethyl)phenyl]aminosulfonamide] | ++

same assay, conditions: read-out: μ and σ1 dual binding

Row | Compound | Ki [nM]
18 | CC1OC2(CCN(CCc3cccnc3N)CC2)CN(c2cnccc2C(F)(F)F)C1=O (centres unmarked) [Example 240, 9-(2-(2-aminopyridin-3-yl)ethyl)-2-methyl-4-(4-(trifluoromethyl)pyridin-3-yl)-1-oxa-4,9-diazaspiro[5.5]undecan-3-one hydrochloride] | > 500
19 | CC(=O)Nc1cccc(CCN2CCC3(CC2)CN(c2ccccc2)C(=O)C(C)O3)c1 (centres unmarked) [Example 243, N-(3-(2-(2-methyl-3-oxo-4-phenyl-1-oxa-4,9-diazaspiro[5.5]undecan-9-yl)ethyl)phenyl)acetamide] | < 500
20 | CC(=O)Nc1cccc(CCN2CCC3(CC2)CN(c2ccccc2)C(=O)[C@H](C)O3)c1 [Example 244a, (S)-N-(3-(2-(2-methyl-3-oxo-4-phenyl-1-oxa-4,9-diazaspiro[5.5]undecan-9-yl)ethyl)phenyl)acetamide hydrochloride] | < 500
21 | CC(=O)Nc1cccc(CCN2CCC3(CC2)CN(c2ccccc2)C(=O)[C@@H](C)O3)c1 [Example 244b, (R)-N-(3-(2-(2-methyl-3-oxo-4-phenyl-1-oxa-4,9-diazaspiro[5.5]undecan-9-yl)ethyl)phenyl)acetamide hydrochloride] | < 100
22 | CC(=O)Nc1cccc(CN2CC3(CCN(CCc4ccccc4)CC3)OCC2=O)c1 [Example 249, N-(3-((3-oxo-9-phenethyl-1-oxa-4,9-diazaspiro[5.5]undecan-4-yl)methyl)phenyl)acetamide hydrochloride] | > 500
23 | CC(=O)Nc1cccnc1CCN1CCC2(CC1)CN(c1ccccc1F)C(=O)C(C)O2 (centres unmarked) [Example 250, N-(2-(2-(4-(2-fluorophenyl)-2-methyl-3-oxo-1-oxa-4,9-diazaspiro[5.5]undecan-9-yl)ethyl)pyridin-3-yl)acetamide] | > 500
24 | CC(=O)Nc1cccc(CCN2CCC3(CC2)CN(Cc2ccc(C(F)(F)F)cn2)C(=O)CO3)c1 [Example 251, N-(3-(2-(3-oxo-4-((5-(trifluoromethyl)pyridin-2-yl)methyl)-1-oxa-4,9-diazaspiro[5.5]undecan-9-yl)ethyl)phenyl)acetamide hydrochloride] | < 500
25 | CC(=O)Nc1ccc(CCN2CCC3(CC2)CN(c2ccccc2)C(=O)C(C)O3)nc1 (centres unmarked) [Example 252, N-(6-(2-(2-methyl-3-oxo-4-phenyl-1-oxa-4,9-diazaspiro[5.5]undecan-9-yl)ethyl)pyridin-3-yl)acetamide] | > 500
26 | CC(=O)Nc1ccnc(CCN2CCC3(CC2)CN(c2ccccc2)C(=O)C(C)O3)c1 (centres unmarked) [Example 253, N-(2-(2-(2-methyl-3-oxo-4-phenyl-1-oxa-4,9-diazaspiro[5.5]undecan-9-yl)ethyl)pyridin-4-yl)acetamide hydrochloride] | > 500
27 | CC(=O)Nc1cc(CCN2CCC3(CC2)CN(c2ccccc2)C(=O)C(C)O3)ccn1 (centres unmarked) [Example 255, N-(4-(2-(2-methyl-3-oxo-4-phenyl-1-oxa-4,9-diazaspiro[5.5]undecan-9-yl)ethyl)pyridin-2-yl)acetamide hydrochloride] | > 500
28 | CS(=O)(=O)Nc1cccc(CN2CC3(CCN(CCc4ccccc4)CC3)OCC2=O)c1 [Example 259, N-(3-((3-oxo-9-phenethyl-1-oxa-4,9-diazaspiro[5.5]undecan-4-yl)methyl)phenyl)methanesulfonamide hydrochloride] | > 500
29 | CS(=O)(=O)Nc1cccc(CCN2CCC3(CC2)CN(c2ccccc2)C(=O)C2(CC2)O3)c1 [Example 260, N-[3-(2-{13-oxo-12-phenyl-4-oxa-8,12-diazadispiro[2.1.5.3]tridecan-8-yl}ethyl)phenyl]methanesulfonamide hydrochloride] | < 500
30 | NC(=O)Nc1cccc(CCN2CCC3(CC2)CN(Cc2ccc(C(F)(F)F)cn2)C(=O)C2(CC2)O3)c1 [Example 263, {3-[2-(13-oxo-12-{[5-(trifluoromethyl)pyridin-2-yl]methyl}-4-oxa-8,12-diazadispiro[2.1.5.3]tridecan-8-yl)ethyl]phenyl}urea] | < 500
31 | CC1OC2(CCN(CCc3ccc(C(=O)O)cc3)CC2)CN(c2ccccc2)C1=O (centres unmarked) [Example 267, 4-(2-(2-methyl-3-oxo-4-phenyl-1-oxa-4,9-diazaspiro[5.5]undecan-9-yl)ethyl)benzoic acid] | > 500
32 | CC1OC2(CCN(CCc3ccccc3)CC2)CN(c2cccc(C(=O)O)c2)C1=O (centres unmarked) [Example 268, 3-(2-methyl-3-oxo-9-phenethyl-1-oxa-4,9-diazaspiro[5.5]undecan-4-yl)benzoic acid] | > 500
33 | CC1OC2(CCN(CCC(=O)O)CC2)CN(c2ccccc2)C1=O (centres unmarked) [Example 269, 3-(2-methyl-3-oxo-4-phenyl-1-oxa-4,9-diazaspiro[5.5]undecan-9-yl)propanoic acid] | > 500
34 | O=C(O)CC1OC2(CCN(CCc3ccccc3)CC2)CN(c2ccccc2)C1=O (centres unmarked) [Example 270, 2-(3-oxo-9-phenethyl-4-phenyl-1-oxa-4,9-diazaspiro[5.5]undecan-2-yl)acetic acid hydrochloride] | > 500
35 | CC1OC2(CCN(CCc3ccc(C(=O)N(C)C)cc3)CC2)CN(c2ccccc2)C1=O (centres unmarked) [Example 273, N,N-dimethyl-4-(2-(2-methyl-3-oxo-4-phenyl-1-oxa-4,9-diazaspiro[5.5]undecan-9-yl)ethyl)benzamide hydrochloride] | > 500
